Measurements published in patent US10118921B2, “Diarylmethylidene piperidine derivatives and their use as delta opoid receptor agnists” (PHARMNOVO AB, priority 2014, dated 2018).

Legend:
Type in all cases: cell-based
[1] = target: T1, δ-opioid receptor (DOR) (Homo sapiens, UniProt P41143); assay: cAMP measurement in δ-opioid-expressing CHO cells (DiscoveRx cAMP Hunter)
Excerpt: (§1) δ-opioid receptors (DOR) are coupled to inhibitory G proteins (Gi/o) which inhibit adenylyl cyclase activity, open K^+ channels and block Ca^2+ channels. They can also couple, in an agonist-dependent manner to β-arrestin 2, which lead to desensitization, and to MAP kinase (ERK) phosphorylation.
(§2) In Vitro Assessment of δ-Opioid Agonist Potency: […]
(§3) cAMP measurements will be made in δ-opioid-expressing CHO cells exposed to increasing agonist concentrations using DiscoveRx cAMP Hunter™ assay kits. β-arrestin recruitment will be measured in the presence of increasing agonist concentrations using DiscoveRx Pathunter® kits. Selectivity of mu- and kappa-opioid receptors will be performed using Cerep cAMP evaluation from ref. 1392 and 2071 (Cerep Le Bois l'Evéque, 86600 Celle l'Evescault, France).

[2] = target: T1, δ-opioid receptor (DOR); assay: β-arrestin recruitment (DiscoveRx Pathunter)
Excerpt: as §1, §2, §3

[3] = target: mu-opioid receptor (Homo sapiens, UniProt P35372); assay: Selectivity versus mu-opioid receptor, Cerep cAMP evaluation; conditions: ratio mu/delta
Chain of mu-opioid receptor (P35372 whole entry): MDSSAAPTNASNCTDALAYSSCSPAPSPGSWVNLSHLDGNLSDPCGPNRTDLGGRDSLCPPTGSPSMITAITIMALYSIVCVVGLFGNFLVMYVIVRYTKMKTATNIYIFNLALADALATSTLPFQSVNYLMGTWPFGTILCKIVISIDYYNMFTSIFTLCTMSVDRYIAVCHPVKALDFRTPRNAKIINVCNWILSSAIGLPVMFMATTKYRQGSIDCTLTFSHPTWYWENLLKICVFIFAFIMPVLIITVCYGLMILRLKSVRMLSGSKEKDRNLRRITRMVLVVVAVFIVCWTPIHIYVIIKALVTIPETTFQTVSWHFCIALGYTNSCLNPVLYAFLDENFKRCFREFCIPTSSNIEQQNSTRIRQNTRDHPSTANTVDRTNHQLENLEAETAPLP
Excerpt: as §3

[4] = target: kappa-opioid receptor (Rattus norvegicus, UniProt P34975); assay: Selectivity versus kappa-opioid receptor, Cerep cAMP evaluation; conditions: ratio kappa/delta
Chain of kappa-opioid receptor (P34975 whole entry): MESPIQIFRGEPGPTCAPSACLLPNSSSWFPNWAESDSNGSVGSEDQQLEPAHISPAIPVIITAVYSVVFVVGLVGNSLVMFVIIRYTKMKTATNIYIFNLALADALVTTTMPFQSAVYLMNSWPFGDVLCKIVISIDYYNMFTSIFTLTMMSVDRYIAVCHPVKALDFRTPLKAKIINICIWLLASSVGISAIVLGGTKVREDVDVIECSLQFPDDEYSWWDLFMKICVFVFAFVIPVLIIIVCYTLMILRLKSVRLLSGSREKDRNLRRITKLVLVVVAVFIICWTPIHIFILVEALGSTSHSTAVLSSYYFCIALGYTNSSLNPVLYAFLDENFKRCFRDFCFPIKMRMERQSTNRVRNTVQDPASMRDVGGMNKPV
Excerpt: as §3

[5] = δ-opioid-expressing CHO cells, agonist potency, read-out: EC-50 cAMP
[6] = β-arrestin recruitment, agonist potency, read-out: EC-50 beta-arrestin

T1 sequence (P41143 whole entry): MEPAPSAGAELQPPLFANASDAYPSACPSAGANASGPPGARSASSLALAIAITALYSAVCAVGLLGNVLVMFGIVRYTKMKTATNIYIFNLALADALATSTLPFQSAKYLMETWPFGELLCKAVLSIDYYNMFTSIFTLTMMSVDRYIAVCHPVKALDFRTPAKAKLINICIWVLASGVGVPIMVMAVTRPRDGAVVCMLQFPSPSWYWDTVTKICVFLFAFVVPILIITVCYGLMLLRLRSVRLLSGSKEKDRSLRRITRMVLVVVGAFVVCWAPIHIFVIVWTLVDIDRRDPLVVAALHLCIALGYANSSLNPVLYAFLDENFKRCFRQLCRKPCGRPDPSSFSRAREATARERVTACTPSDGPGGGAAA

SMILES	EC50 [1, 5] [nM]	EC50 [2, 6] [nM]	Selectivity (mu/delta) [3]	Selectivity (kappa/delta) [4]	EC50 [1] [nM]	EC50 [2] [nM]
CN(C)C(=O)c1ccc(C(=C2CCN(Cc3ccc(C(F)(F)F)nc3)CC2)c2cccc(C(N)=O)c2)cc1 [Example 1a, 4-[(3-Carbamoylphenyl)(1-{[6-(trifluoromethyl)pyridin-3-yl]methyl}piperidin-4-ylidene)methyl]-N,N-dimethylbenzamide]	2.8	28	360	360	–	–
CN(C)C(=O)c1ccc(C(=C2CCN(Cc3cncs3)CC2)c2cccc(C(N)=O)c2)cc1 [Example 1b, 4-[(3-Carbamoylphenyl)[1-(1,3-thiazol-5-ylmethyl)piperidin-4-ylidene]methyl]-N,N-dimethylbenzamide]	–	–	100000	1000	0.5	4
Cc1nc[nH]c1CN1CCC(=C(c2ccc(C(=O)N(C)C)cc2)c2cccc(C(N)=O)c2)CC1 [Example 1c, 4-[(3-Carbamoylphenyl)({1-[(4-methyl-1H-imidazol-5-yl)methyl]piperidin-4-ylidene})methyl]-N,N-dimethylbenzamide]	0.5	3	1000	1000	–	–
